Measured values published in the NIST ThermoML archive (doi:10.1021/acs.jced.9b00283).

Assay: xn = mol fraction of the nth substance listed
Conditions: 100 kPa, Liquid, Pycnometric method

OCCCCCO [1,5-pentanediol] + CCn1cc[n+](C)c1.O=S(=O)([N-]S(=O)(=O)C(F)(F)F)C(F)(F)F
Conditions	molar volume [m3/mol]
298.15 K, x1 = 0.142	0.0002297
298.15 K, x1 = 0.995	0.0001075
303.15 K, x1 = 0.16	0.0002253
303.15 K, x1 = 0.992	0.0001086
308.15 K, x1 = 0.175	0.0002251
308.15 K, x1 = 0.987	0.0001088
313.15 K, x1 = 0.193	0.0002239
313.15 K, x1 = 0.982	0.0001095

OCCCCO [1,4-butanediol] + CCn1cc[n+](C)c1.F[B-](F)(F)F
Conditions	molar volume [m3/mol]
298.15 K, x1 = 0.19	0.0001368
298.15 K, x1 = 0.978	9.18e-05
303.15 K, x1 = 0.24	0.0001346
303.15 K, x1 = 0.962	9.26e-05
308.15 K, x1 = 0.251	0.0001345
308.15 K, x1 = 0.957	9.33e-05
313.15 K, x1 = 0.326	0.0001286
313.15 K, x1 = 0.944	9.04e-05

OCCCCO [1,4-butanediol] + CCn1cc[n+](C)c1.O=S(=O)([N-]S(=O)(=O)C(F)(F)F)C(F)(F)F
Conditions	molar volume [m3/mol]
298.15 K, x1 = 0.177	0.0002253
298.15 K, x1 = 0.971	9.23e-05
303.15 K, x1 = 0.189	0.0002241
303.15 K, x1 = 0.968	9.31e-05
308.15 K, x1 = 0.217	0.00022
308.15 K, x1 = 0.962	9.36e-05
313.15 K, x1 = 0.233	0.0002181
313.15 K, x1 = 0.958	9.29e-05

OCCCO [propan-1,3-diol] + CCn1cc[n+](C)c1.O=S(=O)([N-]S(=O)(=O)C(F)(F)F)C(F)(F)F
Conditions	molar volume [m3/mol]
298.15 K, x1 = 0.208	0.0002153
298.15 K, x1 = 0.977	7.48e-05
303.15 K, x1 = 0.226	0.0002124
303.15 K, x1 = 0.974	7.55e-05
308.15 K, x1 = 0.234	0.0002114
308.15 K, x1 = 0.971	7.61e-05
313.15 K, x1 = 0.259	0.0002063
313.15 K, x1 = 0.971	7.6e-05

OCCCCCO [1,5-pentanediol] + CCn1cc[n+](C)c1.F[B-](F)(F)F
Conditions	molar volume [m3/mol]
303.15 K, x1 = 0.129	0.0001423
303.15 K, x1 = 0.982	0.0001069
308.15 K, x1 = 0.151	0.0001416
308.15 K, x1 = 0.977	0.0001075
313.15 K, x1 = 0.183	0.0001412
313.15 K, x1 = 0.97	0.0001062
318.15 K, x1 = 0.231	0.0001381
318.15 K, x1 = 0.969	0.0001064
